We go through 1 compound from patent US8334107B2, “Detection systems utilizing supported lipid bilayers” (priority 2005, dated 2012).

Common to all, as to format: biochemical
The test system of assay [1] is 80:20 (molar ratio) DMPG and DMPC lipid bilayers on porous silica beads. The assay is described as follows: Suspension study: melittin-induced release of fluorescein dye from DMPG/DMPC coated porous beads. To be noted: 220 μM melittin, 25° C., 80:20 DMPG:DMPC. How it is done: Experimental procedures were similar to the Triton X-100® detergent based analysis. For experiments with α-toxin, three different toxin concentrations: 15, 45 and 250 μg/mL were used at 37° C. and 25° C. Beads coated with EPC were used. In the experiments with melittin, 220 μM melittin was used with beads coated with either 100% EPC, 10:90 (molar ratio) mixture of DMPG and EPC or an 80:20 mixture of DMPG and DMPC. All melittin experiments were conducted at 25° C.
Previous suspension studies on disruption of lipid bilayers have been performed with small unilamellar vesicles where disruption of the lipid bilayer membranes was detected by monitoring the unquenching of a highly concentrated, encapsulated dye. In the present work disruption was monitored via release of fluorescein dye from porous beads, by measuring the increase in fluorescence intensity of the supernatant at 520 nm. Beads were first suspended in Tris buffer containing the disruptor. […] The measured portion was added back to the bead sample to permit continuous monitoring. […]
In view of the results shown in FIG. 5, the effects of melittin on other mixtures of lipids were examined. […] The increase in fluorescence intensity due to the membrane-melittin interaction, which results in the release of dye from porous beads was about 10 fold. […]

The next assay relates to lipid bilayer. The assay is described as follows: Superquenching of fluorescent polymer coated lipid bilayer beads (general statement). To be noted: streptolysin O with cholesterol-containing lipids, mellitin with anionic lipids. The source says:
On the other hand, some test agents may only lead to gaps or smaller interruptions of the lipid bilayer, for example, as a result of insertion of a channel- or pore-forming proteins such as gramicidin and hemolysin. In either case, the result is either complete or partial superquenching of the fluorescent polymer. In general, non-porous beads are used for such quenching assays because the quenchable polymer is preferably coated onto the beads and is not impregnated into the beads.

Assay [2] has as its system 80:20 (molar ratio) DMPG and DMPC membrane on biotin containing porous beads. Description: Microfluidic study: detection of membrane interaction by release of reagent (biotin, ostrich quenching-unquenching). To be noted: 20 μL of melittin (220 μM), flow ~1.2 μL/min. On the procedure:
A microchannel was packed with a segment (about 1 mm) of streptavidin coated beads to which a non saturating amount of fluorescein biotin had been bound. This was followed by a segment (about 1 mm) of blank silica beads and a segment (about 2 mm) of lipid coated porous beads containing biotin. The blank silica beads were served as the spacer to prevent mixing of fluorescein biotin beads with biotin encapsulated beads. Biotin (25 mM) was encapsulated (according to the same procedure for fluorescein) with a 80:20 (molar ratio) mixture of DMPG and DMPC. A […] aliquot of either 10% Triton X-100® detergent or 220 μM melittin was injected to the column. The fluorescein biotin bead segment was irradiated at 488 nm and its fluorescence emission intensity was measured at 520 nm every 10 minutes.
In this study the membrane-toxin interaction was investigated using the microcolumn system by monitoring a bimolecular reaction on downstream beads. […] The unquenching of fluorescence was the signal for the disruption. […] Introduction of free biotin displaced the fluorescein from the cis binding pocket thus unquenching the fluorescence signal. […]
20 μL of melittin (220 μM) was injected to the bead packed microchannel at 18 min. […] The initial fluorescence intensity decrease is again due to photobleaching, resulting from exposure of the fluorescein-biotin segment to the Ar ion laser. […]

The subject of assay [3] is DMPG bilayer on PPE-coated beads. Description: Microfluidic assay: detection of lipid bilayer disruption by fluorescence superquenching. To be noted: injected as 1:1 mixture with 120 μM AQS. On the procedure: The preparation of microcolumns with PPE-coated, silica beads was similar to that of with fluorescein containing beads. A 10 μL aliquot of 120 μM AQS was injected to the column. After a certain period of time, a 10 μL aliquot of 1:1 mixture of 120 μM AQS and 220 μM melittin was injected. During this process, the PPE-coated silica bead segment was irradiated at 488 nm and its fluorescence emission intensity was measured at 520 nm every 10 minutes. This experiment was repeated, while injecting 220 μM melittin first, and then 120 μM AQS.
The feasibility of using superquenching as a method of detecting membrane-toxin interactions in microcolumns was also investigated. The fluorescence intensity of the cationic polyelectrolyte poly(p-phenylene-ethynylene) polymer (PPE) can be super-quenched by the quencher 9,10-anthraquinone-2,6-disulfonic acid (AQS). […] It has been observed in flow cytometric studies that formation of DMPG membranes on PPE-coated beads will quench the PPE fluorescence to some extent. The initial rise in fluorescence intensity was probably due to the unquenching of the PPE, due to the removal of lipid bilayers from PPE-coated beads through melittin interaction, whereas the decrease in fluorescence corresponded to superquenching of PPE by AQS after disruption of DMPG bilayer by melittin. […]

Turning to `CC[C@H](C)[C@H](NC(=O)CN)C(=O)NCC(=O)N[C@@H](C)C(=O)N[C@H](C(=O)N[C@@H](CC(C)C)C(=O)N[C@@H](CCCCN)C(=O)N[C@H](C(=O)N[C@@H](CC(C)C)C(=O)N[C@H](C(=O)N[C@H](C(=O)NCC(=O)N[C@@H](CC(C)C)C(=O)N1CCC[C@H]1C(=O)N[C@@H](C)C(=O)N[C@@H](CC(C)C)C(=O)N[C@H](C(=O)N[C@@H](CO)C(=O)N[C@@H](Cc1c[nH]c2ccccc12)C(=O)N[C@H](C(=O)N[C@@H](CCCCN)C(=O)N[C@@H](CCCNC(=N)N)C(=O)N[C@@H](CCCCN)C(=O)N[C@@H](CCCNC(=N)N)C(=O)N[C@@H](CCC(N)=O)C(=O)N[C@@H](CCC(N)=O)C(N)=O)[C@@H](C)CC)[C@@H](C)CC)[C@@H](C)O)[C@@H](C)O)C(C)C)C(C)C` [melittin], the “increase in fluorescence intensity due to the membrane-melittin interaction” value in assay [1] is on record as “about 10 fold”. In addition, in the assay with lipid bilayer, the “effect on the lipid bilayer” value is on record as “total disruption of the bilayer”. Also, the “increase in fluorescence intensity of fluorescein-biotin segment” value in assay [2] is listed as “not as high as that observed for Triton X-100”. Moreover, in assay [3], the “change in fluorescence intensity of bead segment” value is reported as “slight rise in fluorescence intensity followed by a significant decrease”.
